Assay results from ChEMBL document CHEMBL1153218, “Non-peptide entry inhibitors of HIV-1 that target the gp41 coiled coil pocket” (Bioorg Med Chem Lett, 2010).

How the values were obtained:
[1] = Binding affinity to HIV1 envelope gp41 by NMR study; design: species or system Human immunodeficiency virus 1
[2] = Inhibition of HIV1 envelope gp41-mediated fusion of CHO cells expressing HIV1 envelope with calcein-AM labeled SupT1 cells by fluorescence assay; assay type: cell-based, Human immunodeficiency virus 1

| Structure (SMILES) | Kd [1] [µM] | EC50 [2] [µM] |
| --- | --- | --- |
| O=C(O)c1ccccc1C(=O)N(Cc1cccc(Oc2ccccc2)c1)Cc1ccccn1 | > 5000 | – |
| O=C(O)c1cc(C(=O)O)cc(C(=O)N(Cc2cccc(Oc3ccccc3)c2)[C@H]2CCCc3ccccc32)c1 | – | 41 |
| O=C(O)c1ccccc1C(=O)N(Cc1cccc(Oc2ccc(Cl)cc2)c1)[C@H]1CCCc2ccccc21 | – | 3 |
| O=C(O)c1ccccc1C(=O)N(Cc1cccc(Oc2ccccc2)c1)CC12CC3CC(CC(C3)C1)C2 | – | 7 |
| O=C(O)c1cc(C(=O)O)c(C(=O)N(Cc2cccc(OC3CCOCC3)c2)[C@H]2CCCc3ccccc32)cc1C(=O)O | – | > 250 |
| O=C(O)c1cc(C(=O)O)c(C(=O)N(Cc2ccc(-c3ccccc3Cl)cc2)[C@H]2CCCc3ccccc32)cc1C(=O)O | – | 9 |
| O=C(O)c1cc(C(=O)O)c(C(=O)N(Cc2ccc(-c3cc(Cl)cc(Cl)c3)cc2)[C@H]2CCCc3ccccc32)cc1C(=O)O | – | 4 |
| COc1ccc(-c2ccc(CN(C(=O)c3cc(C(=O)O)c(C(=O)O)cc3C(=O)O)[C@H]3CCCc4ccccc43)cc2)cc1 | 789 | 14 |
| O=C(O)c1cc(C(=O)O)c(C(=O)N(Cc2ccc3c(c2)Cc2ccccc2-3)[C@H]2CCCc3ccccc32)cc1C(=O)O | – | 26 |
| O=C(O)c1ccc(C(=O)N(Cc2cccc(Oc3ccccc3)c2)[C@H]2CCCc3ccccc32)cc1C(=O)O | – | 34 |
| O=C(O)c1ccccc1C(=O)N(Cc1ccc(-c2ccccc2)cc1)[C@H]1CCCc2ccccc21 | – | 16 |
| CC(=O)N[C@H](CCCCN)C(=O)N[C@H](CCCCN)C(=O)NCC(=O)N[C@H](C)C(=O)N[C@@H]1CSSC[C@H](C(=O)N[C@H](C)C(=O)N[C@H](C)C(N)=O)NC(=O)[C@@H](CC(C)C)NC(=O)[C@@H](Cc2c[nH]c3ccccc23)NC(=O)[C@@H](C)NC(=O)[C@@H](Cc2c[nH]c3ccccc23)NC(=O)[C@@H](CCC(=O)O)NC(=O)[C@@H](Cc2c[nH]c3ccccc23)NC(=O)CNC(=O)[C@@H](CC(C)C)NC(=O)[C@@H](CC(C)C)NC(=O)[C@@H](CCC(=O)O)NC1=O | – | 19 |
| O=C(O)c1cc(C(=O)O)c(C(=O)N(Cc2cccc(Oc3ccccc3)c2)[C@H]2CCCc3ccccc32)cc1C(=O)O [A-317491] | – | 13 |
